Data as given in patent US6989155B1, “Powders” (Vectura Limited, priority 1998, dated 2006).

Experiments:
Assay type in all cases: physicochemical
[1] = Particle size distribution by low angle laser light scattering (Mastersizer X); details: for D(v,90): diameter below which 90% of particles by volume reside, unit not given; for VMD: volume median diameter, dispersant 0.05% lecithin in cyclohexane
Protocol: The particle size distribution was determined by low angle laser light scattering (Mastersizer X, Malvern Instruments, Malvern, UK). To approximately 5 mg of the sample to be analysed 10 ml of dispersant was added (0.05% lecithin in cyclohexane). The sample suspension was sonicated for 30 seconds before analysis. The volume median diameter (VMD) and D(v,90) were determined. VMD is the diameter such that 50% of the particles by volume have a diameter less than the VMD. D(v,90) is the equivalent volume diameter at 90% cumulative volume. The bulk density and particle size diameter (as VMD) were determined for the spray-dried leucine. Bulk density and VMD were determined by the method indicated above.

[2] = Bulk density (poured density) of powder in a 100 cm^3 measuring cylinder; details: L-leucine samples
Protocol: The bulk density (or poured density) of a material of the present invention is determined by the following method:
2 g of the material is poured from weighing paper into a 100 cm^3 graduated glass measuring cylinder in an upright position. Transfer of the material from the paper into the cylinder is made as rapidly as flow permits. The volume occupied by the poured powder in the cylinder is measured to the nearest 0.5 ml (bulk volume) and the weight of the powder is determined.
The bulk density of the material is calculated as the weight of the powder divided by the bulk volume.
The bulk density and particle size diameter (as VMD) were determined for the spray-dried leucine. Bulk density and VMD were determined by the method indicated above.
The bulk density and particle size distribution were determined by the methods described in respect of Example 1 above, and are given in Table 3.

[3] = Flow properties: poured density, tapped density and Carr's Index; details: for Poured Density: 250 cm^3 measuring cylinder; for Tapped Density: tapped to constant volume
Protocol: The flow properties of the L-leucine were determined by measuring the Carr's Index of the powder. Spray-dried L-leucine was added to a powdered protein (BSA-maltodextrin 50:50).
Carr's Index of a sample was determined by measuring the volume (Vpour) of weight (W) poured into a 250 cm^3 measuring cylinder and tapping the cylinder to obtain constant volume of the sample (Vtap). The poured density (bulk density) and the tap density are calculated as W/Vpour and W/Vtap respectively and Carr's Index is calculated from the tapped density and the poured density by the formula [formula]

[4] = Thickness of flakes (electron microscope observation); details: flakes prepared by the spray drying method
Source text: Observation of the thickness of the flakes may be made by studying electron microscope (SEM) images of the particles. For example, flakes may be mounted on an electron microscope stub with double sided tape and coated with gold prior to examination on an electron microscope. An alternative method for observing the dimensions of particles of the present invention is by sizing the particles on a microscope slide in a similar way to that described in British Pharmacopoeia 1973 (page 645, Ergotamine Aerosol Inhalation). In this case a small quantity of particles, for example 10 to 100 mg, are dropped onto a microscope slide and examined under a microscope to assess the particle size of the deposit.

[5] = listed as unprocessed L-leucine

Row | VMD [1] | Bulk Density ([2]; Example 1, Table 1) [g cm^−3] | Bulk Density ([2]; Example 2, Table 3) [gcm^−3] | Compound | also measured
1 | 4.2 μm | 0.042 | – | CC(C)C[C@H](N)C(=O)O [spray-dried A, L-leucine] | D(v,90) [1]: 10.6
2 | 3.9 μm | 0.032 | – | CC(C)C[C@H](N)C(=O)O [spray-dried E, L-leucine] | D(v,90) [1]: 11.9
3 | – | – | 0.04 | CC(C)C[C@H](N)C(=O)O [condensed, L-leucine] | –
4 | – | 0.029 | – | CC(C)C[C@H](N)C(=O)O [spray-dried C, L-leucine] | –
5 | – | – | – | CC(C)C[C@H](N)C(=O)O [spray-dried L-leucine, L-leucine] | Poured Density [3]: 0.043 gcm^−3; Tapped Density [3]: 0.055 gcm^−3; thickness of flakes [4]: less than 100 nm
6 | – | 0.710 | 0.70 | CC(C)C[C@H](N)C(=O)O [unprocessed, L-leucine, reference compound] | Poured Density [3, 5]: 0.710 gcm^−3; Tapped Density [3, 5]: 0.770 gcm^−3
7 | – | 0.035 | – | CC(C)C[C@H](N)C(=O)O [spray-dried D, L-leucine] | –
8 | – | 0.035 | – | CC(C)C[C@H](N)C(=O)O [spray-dried B, L-leucine] | –
9 | milled (VMD = 18 μm) | – | 0.30 | CC(C)C[C@H](N)C(=O)O [milled, L-leucine, reference compound] | –
